Legend:
Experiment in all cases: relative viability (nuclei count vs DMSO), 5 days (fraction); higher = more cells survive
[1] = compound: OCc1c[nH]c2ccccc12 [Indole-3-carbinol] + CC(C)C[C@H](NC(=O)[C@H](Cc1ccccc1)NC(=O)c1cnccn1)B(O)O [Bortezomib] (partner 0.002 µM)
In short: (§1)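 Dosing by pin tool came one day after lung cancer cell lines were seeded in 1536-well plates, using either one drug or a fixed anchor-drug dose plus five library-drug doses (not always all listed) in √10 steps. After 5 days, nuclei were counted on 4× images. Relative viability is treated-well nuclei count divided by vehicle-well nuclei count, and values are medians of duplicate plates.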

[2] = compound: OCc1c[nH]c2ccccc12 [Indole-3-carbinol] + C[C@]1(O)C[C@@H](c2nc(-c3ccc4ccc(-c5ccccc5)nc4c3)c3c(N)nccn32)C1 [Linsitinib] (partner 1 µM)
In short: as §1

[3] = compound: OCc1c[nH]c2ccccc12 [Indole-3-carbinol] + N=C(N)NC(=N)NCCc1ccccc1 [Phenformin] (partner 250 µM)
In short: as §1

[4] = compound: OCc1c[nH]c2ccccc12 [Indole-3-carbinol] + NC(=O)Nc1cc(-c2cccc(F)c2)sc1C(=O)N[C@H]1CCCNC1 [AZD7762] (partner 0.2 µM)
In short: as §1

[5] = compound: OCc1c[nH]c2ccccc12 [Indole-3-carbinol] + Nc1ncn([C@H]2C[C@H](O)[C@@H](CO)O2)c(=O)n1 [Decitabine] (partner 2 µM)
In short: as §1

| Cell Line | relative viability ([1]; first compound 0.253 µM) | relative viability ([1]; first compound 0.8 µM) | relative viability ([1]; first compound 2.53 µM) | relative viability ([1]; first compound 8 µM) | relative viability ([2]; first compound 0.253 µM) | relative viability ([2]; first compound 0.8 µM) | relative viability ([2]; first compound 2.53 µM) | relative viability ([2]; first compound 8 µM) | relative viability ([3]; first compound 0.253 µM) | relative viability ([3]; first compound 0.8 µM) | relative viability ([3]; first compound 2.53 µM) | relative viability ([3]; first compound 8 µM) | relative viability ([4]; first compound 0.253 µM) | relative viability ([4]; first compound 0.8 µM) | relative viability ([4]; first compound 2.53 µM) | relative viability ([4]; first compound 8 µM) | relative viability ([5]; first compound 0.253 µM) | relative viability ([5]; first compound 0.8 µM) | relative viability ([5]; first compound 2.53 µM) | relative viability ([5]; first compound 8 µM) |
| --- | --- | --- | --- | --- | --- | --- | --- | --- | --- | --- | --- | --- | --- | --- | --- | --- | --- | --- | --- | --- |
| HCC-366 | 0.986 | 0.858 | 1.05 | 1.09 | 0.663 | 0.369 | 0.615 | 0.705 | 0.645 | 0.61 | 0.696 | 0.565 | 0.265 | 0.242 | 0.355 | 0.258 | 0.384 | 0.335 | 0.369 | 0.335 |
| HCC-827 | 0.873 | 0.986 | 1.03 | 0.986 | 1.04 | 1.01 | 0.962 | 0.942 | 0.389 | 0.383 | 0.417 | 0.364 | 0.228 | 0.192 | 0.213 | 0.265 | 0.379 | 0.337 | 0.312 | 0.34 |
| HOP-62 | 0.989 | 0.711 | 0.82 | 0.521 | 1.03 | 1.06 | 1.14 | 0.937 | 0.724 | 0.654 | 0.671 | 0.628 | 0.65 | 0.61 | 0.631 | 0.607 | 0.187 | 0.218 | 0.228 | 0.196 |
| IA-LM | 0.842 | 0.898 | 0.82 | 0.789 | 0.674 | 0.593 | 0.637 | 0.444 |  |  |  |  |  |  |  |  |  |  |  |  |
| LK-2 |  |  |  |  | 0.627 | 0.572 | 0.47 | 0.536 | 0.245 | 0.381 | 0.606 | 0.563 | 0.454 | 0.363 | 0.324 | 0.539 | 0.308 | 0.231 | 0.374 | 0.327 |
| NCI-H358 |  |  |  |  | 0.697 | 0.7 | 0.734 | 0.709 | 0.383 | 0.33 | 0.345 | 0.325 | 0.56 | 0.489 | 0.591 | 0.507 | 0.204 | 0.207 | 0.304 | 0.207 |
| NCI-H520 | 0.543 | 0.613 | 0.498 | 0.563 | 1.04 | 0.872 | 1.24 | 0.854 | 0.58 | 0.549 | 0.622 | 0.585 |  |  |  |  | 0.526 | 0.541 | 0.505 | 0.541 |
| NCI-H522 |  |  |  |  |  |  |  |  | 0.621 | 0.661 | 0.724 | 0.671 | 0.78 | 0.92 | 0.956 | 0.912 | 0.698 | 0.699 | 0.803 | 0.689 |
| NCI-H661 | 0.94 | 0.602 | 0.748 | 0.746 | 0.542 | 0.378 | 0.623 | 0.676 | 0.281 | 0.253 | 0.272 | 0.266 |  |  |  |  | 0.551 | 0.547 | 0.563 | 0.547 |
| NCI-H1395 |  |  |  |  | 1.04 | 0.974 | 1.02 | 1.14 | 0.434 | 0.405 | 0.432 | 0.457 | 0.404 | 0.41 | 0.379 | 0.399 | 0.723 | 0.771 | 0.695 | 0.685 |
